The text below walks through data of patent US12528788B2, “Pesticidally active benzene- and azine-amide compounds” (SYNGENTA CROP PROTECTION AG, priority 2018, dated 2026).

Format in all cases: in vivo
One assay has as its system Diabrotica balteata. The assay is described as follows: Example B1: Diabrotica balteata (corn root worm), maize sprouts sprayed, L2 larvae. Conditions: 96 h, application rate of 200 ppm, 4 days after infestation, L2 larvae on maize sprouts, read-out: control in at least one of the two categories (mortality or growth inhibition). The protocol: Example B1: Diabrotica balteata (Corn Root Worm)
Maize sprouts placed onto an agar layer in 24-well microtiter plates were treated with aqueous test solutions prepared from 10′000 ppm DMSO stock solutions by spraying. After drying, the plates were infested with L2 larvae (6 to 10 per well). The samples were assessed for mortality and growth inhibition in comparison to untreated samples 4 days after infestation.

Assay [1] concerns Plutella xylostella. Briefly: Example B14: Plutella xylostella (diamondback moth), 96-well artificial diet. Particulars: 216 h, application rate of 500 ppm, 9 days after infestation. The protocol:
Example B14: Plutella xylostella (Diamondback Moth)
96-well microtiter plates containing artificial diet were treated with aqueous test solutions, prepared from 10′000 ppm DMSO stock solutions, by a liquid handling robot. After drying, eggs (˜30 per well) were infested onto a netted lid which was suspended above the diet. The eggs hatch and L1 larvae move down to the diet. The samples were assessed for mortality 9 days after infestation.

Assay [2] deals with Plutella xylostella. Briefly: Example B5: Plutella xylostella (diamond back moth), artificial diet, 24-well, eggs. Particulars: 192 h, application rate of 200 ppm, 8 days after infestation, read-out: control in at least one of the two categories (mortality or growth inhibition). The protocol: Example B5: Plutella xylostella (Diamond Back Moth)
24-well microtiter plates with artificial diet were treated with aqueous test solutions prepared from 10′000 ppm DMSO stock solutions by pipetting. After drying, Plutella eggs were pipetted through a plastic stencil onto a gel blotting paper and the plate was closed with it. The samples were assessed for mortality and growth inhibition in comparison to untreated samples 8 days after infestation.

Another assay relates to Spodoptera littoralis. The assay is described as follows: Example B9: Spodoptera littoralis (Egyptian cotton leaf worm), cotton leaf discs sprayed, L1 larvae. Particulars: foliar, 72 h, application rate of 200 ppm, 3 days after infestation, read-out: control in at least one of the three categories (mortality, anti-feedant effect or growth inhibition).
In another assay the test system is Chilo suppressalis. The assay is described as follows: Example B4: Chilo suppressalis (striped rice stemborer), artificial diet, L2 larvae. Particulars: 144 h, application rate of 200 ppm, 6 days after infestation, read-out: control in at least one of the three categories (mortality, anti-feedant effect or growth inhibition). The protocol: Example B4: Chilo suppressalis (Striped Rice Stemborer)
24-well microtiter plates with artificial diet were treated with aqueous test solutions prepared from 10′000 ppm DMSO stock solutions by pipetting. After drying, the plates were infested with L2 larvae (6-8 per well). The samples were assessed for mortality, anti-feeding effect, and growth inhibition in comparison to untreated samples 6 days after infestation. Control of Chilo suppressalis by a test sample is given when at least one of the categories mortality, anti-feedant effect, and growth inhibition is higher than the untreated sample.

In another assay the test system is Myzus persicae. The assay is described as follows: Example B13: Myzus persicae (green peach aphid), 96-well sucrose solution. Conditions: 120 h, application rate of 50 ppm, 5 days after infestation. The source says: Example B13: Myzus persicae (Green Peach Aphid)
Test compounds prepared from 10′000 ppm DMSO stock solutions were applied by a liquid handling robot into 96-well microtiter plates and mixed with a sucrose solution. Parafilm was stretched over the 96-well microtiter plate and a plastic stencil with 96 holes was placed onto the plate. Aphids were sieved into the wells directly onto the Parafilm. The infested plates were closed with a gel blotting card and a second plastic stencil and then turned upside down. The samples were assessed for mortality 5 days after infestation.

Molecules are shown by their SMILES.

By mortality is commonly meant the percentage killed. High values mean a strong lethal effect, low ones a weak lethal effect. For the compound `CC(c1cccnc1-c1ncccn1)N(CC1CC1)C(=O)c1cc(C(F)(F)F)cc(C(F)(F)F)c1` (stereo not drawn) [Compound P1, N-(cyclopropylmethyl)-N-[1-(2-pyrimidin-2-yl-3-pyridyl)ethyl]-3,5-bis(trifluoromethyl)benzamide], in the assay on Diabrotica balteata, the percent control (mortality or growth inhibition) at 200 ppm is ≥ 80%. The mortality at 500 ppm with Plutella xylostella [1] was ≥ 80%.

Consider `CC(c1cnccc1-c1ncccn1)N(CC1CC1)C(=O)c1cc(C(F)(F)F)cc(C(F)(F)F)c1` (stereo not drawn) [Compound P2, N-(cyclopropylmethyl)-N-[1-(4-pyrimidin-2-yl-3-pyridyl)ethyl]-3,5-bis(trifluoromethyl)benzamide], for which, in the assay on Plutella xylostella [2], the percent control (mortality or growth inhibition) at 200 ppm is ≥ 80%. The mortality at 500 ppm in the assay on Plutella xylostella [1] was ≥ 80%.

In the case of `CC(c1ncccc1-c1ncccn1)N(CC1CC1)C(=O)c1cc(C(F)(F)F)cc(C(F)(F)F)c1` (stereo not drawn) [Compound P3, N-(cyclopropylmethyl)-N-[1-(3-pyrimidin-2-yl-2-pyridyl)ethyl]-3,5-bis(trifluoromethyl)benzamide], the percent control (mortality or growth inhibition) at 200 ppm with Diabrotica balteata and in the assay with Plutella xylostella [2] was ≥ 80% in each case. Moreover, the percent control (mortality, anti-feedant effect or growth inhibition) at 200 ppm with Spodoptera littoralis is ≥ 80%. In the assay on Plutella xylostella [1], the mortality at 500 ppm was ≥ 80%.

For the compound `CC(c1ncncc1-c1ncccn1)N(CC1CC1)C(=O)c1cc(C(F)(F)F)cc(C(F)(F)F)c1` (stereo not drawn) [Compound P6, N-(cyclopropylmethyl)-N-[1-(5-pyrimidin-2-ylpyrimidin-4-yl)ethyl]-3,5-bis(trifluoromethyl)benzamide], the percent control (mortality or growth inhibition) at 200 ppm in the assay with Diabrotica balteata and in the assay on Plutella xylostella [2] was ≥ 80% throughout. In addition, in the assay with Plutella xylostella [1], the mortality at 500 ppm is ≥ 80%.

Turning to `CC(c1nccnc1-c1ccccn1)N(CC1CC1)C(=O)c1cc(C(F)(F)F)cc(C(F)(F)F)c1` (stereo not drawn) [Compound P7, N-(cyclopropylmethyl)-N-[1-[3-(2-pyridyl)pyrazin-2-yl]ethyl]-3,5-bis(trifluoromethyl)benzamide], the percent control (mortality or growth inhibition) at 200 ppm with Diabrotica balteata and in the assay on Plutella xylostella [2] was ≥ 80% each time. For the same compound, the percent control (mortality, anti-feedant effect or growth inhibition) at 200 ppm with Spodoptera littoralis was ≥ 80%. Further, in the assay on Plutella xylostella [1], the mortality at 500 ppm is ≥ 80%.

With `CC(c1cnc(Cl)cc1-c1ncccn1)N(CC1CC1)C(=O)c1cc(C(F)(F)F)cc(C(F)(F)F)c1` (stereo not drawn) [Compound P8, N-[1-(6-chloro-4-pyrimidin-2-yl-3-pyridyl)ethyl]-N-(cyclopropylmethyl)-3,5-bis(trifluoromethyl)benzamide], the percent control (mortality or growth inhibition) at 200 ppm in the assay on Plutella xylostella [2] was ≥ 80%. Moreover, in the assay on Plutella xylostella [1], the mortality at 500 ppm was ≥ 80%.

On to `CC(c1nc(F)ccc1-c1ncccn1)N(CC1CC1)C(=O)c1cc(C(F)(F)F)cc(C(F)(F)F)c1` (stereo not drawn) [Compound P9, N-(cyclopropylmethyl)-N-[1-(6-fluoro-3-pyrimidin-2-yl-2-pyridyl)ethyl]-3,5-bis(trifluoromethyl)benzamide], for which the percent control (mortality or growth inhibition) at 200 ppm in the assay on Diabrotica balteata and in the assay on Plutella xylostella [2] was ≥ 80% in each case. Moreover, the percent control (mortality, anti-feedant effect or growth inhibition) at 200 ppm in the assay on Spodoptera littoralis was ≥ 80%. Besides, the mortality at 500 ppm with Plutella xylostella [1] was ≥ 80%.

Turning to `CC(c1cnc(C(F)(F)F)cc1-c1ncccn1)N(CC1CC1)C(=O)c1cc(C(F)(F)F)cc(C(F)(F)F)c1` (stereo not drawn) [Compound P10, N-(cyclopropylmethyl)-N-[1-[4-pyrimidin-2-yl-6-(trifluoromethyl)-3-pyridyl]ethyl]-3,5-bis(trifluoromethyl)benzamide], in the assay on Plutella xylostella [2], the percent control (mortality or growth inhibition) at 200 ppm is ≥ 80%. Moreover, in the assay on Spodoptera littoralis, the percent control (mortality, anti-feedant effect or growth inhibition) at 200 ppm is ≥ 80%. Further, in the assay with Plutella xylostella [1], the mortality at 500 ppm was ≥ 80%.

With `CC(c1nccnc1-c1ccccn1)N(CC1CC1)C(=O)c1cc(Cl)cc(C(F)(F)F)c1` (stereo not drawn) [Compound P11, 3-chloro-N-(cyclopropylmethyl)-N-[1-[3-(2-pyridyl)pyrazin-2-yl]ethyl]-5-(trifluoromethyl)benzamide], the percent control (mortality or growth inhibition) at 200 ppm in the assay with Diabrotica balteata and with Plutella xylostella [2] was ≥ 80% each time. The percent control (mortality, anti-feedant effect or growth inhibition) at 200 ppm in the assay with Spodoptera littoralis was ≥ 80%. Moreover, the mortality at 500 ppm in the assay with Plutella xylostella [1] was ≥ 80%.

For the compound `CC(NC(=O)c1cc(C(F)(F)F)cc(C(F)(F)F)c1)c1nccnc1-c1ncccc1F` (stereo not drawn) [Compound P13, N-[1-[3-(3-fluoro-2-pyridyl)pyrazin-2-yl]ethyl]-3,5-bis(trifluoromethyl)benzamide], the percent control (mortality or growth inhibition) at 200 ppm in the assay with Diabrotica balteata and with Plutella xylostella [2] was ≥ 80% in each case. Also, the percent control (mortality, anti-feedant effect or growth inhibition) at 200 ppm in the assay with Spodoptera littoralis and in the assay on Chilo suppressalis was ≥ 80% each time.

Turning to `CC(NC(=O)c1cc(C(F)(F)F)cc(C(F)(F)F)c1)c1nccnc1-c1ccccn1` (stereo not drawn) [Compound P25, N-[1-[3-(2-pyridyl)pyrazin-2-yl]ethyI]-3,5-bis(trifluoromethyl)benzamide], the percent control (mortality or growth inhibition) at 200 ppm in the assay on Diabrotica balteata and in the assay on Plutella xylostella [2] was ≥ 80% in each case. For the same compound, in the assay on Myzus persicae, the mortality at 50 ppm was ≥ 80%. In addition, the percent control (mortality, anti-feedant effect or growth inhibition) at 200 ppm with Spodoptera littoralis is ≥ 80%. Further, in the assay on Plutella xylostella [1], the mortality at 500 ppm is ≥ 80%.

As to `CC(c1ccccc1-c1ncccn1)N(CC1CC1)C(=O)c1cc(C(F)(F)F)cc(C(F)(F)F)c1` (stereo not drawn) [Compound P26, N-(cyclopropylmethyl)-N-[1-(2-pyrimidin-2-ylphenyl)ethyl]-3,5-bis(trifluoromethyl)benzamide], the percent control (mortality or growth inhibition) at 200 ppm with Plutella xylostella [2] was ≥ 80%. Also, in the assay with Plutella xylostella [1], the mortality at 500 ppm was ≥ 80%.

Consider `CC(c1ccccc1-c1ccccn1)N(CC1CC1)C(=O)c1cc(Cl)cc(C(F)(F)F)c1` (stereo not drawn) [Compound P27, 3-chloro-N-(cyclopropylmethyl)-N-[1-[2-(2-pyridyl)phenyl]ethyl]-5-(trifluoromethyl)benzamide], for which the percent control (mortality or growth inhibition) at 200 ppm in the assay with Plutella xylostella [2] is ≥ 80%. Besides, the mortality at 500 ppm in the assay on Plutella xylostella [1] is ≥ 80%.

Regarding `CC(c1ccccc1-c1ccccn1)N(CC1CC1)C(=O)c1cc(C(F)(F)F)cc(C(F)(F)F)c1` (stereo not drawn) [Compound P28, N-(cyclopropylmethyl)-N-[1-[2-(2-pyridyl)phenyl]ethyl]-3,5-bis(trifluoromethyl)benzamide], the mortality at 500 ppm in the assay on Plutella xylostella [1] was ≥ 80%.

As to `CC(NC(=O)c1cc(OCC(F)F)cc(C(F)(F)F)c1)c1nccnc1-c1ncc(C2CC2)cn1` (stereo not drawn) [Compound P32, N-[1-[3-(5-cyclopropylpyrimidin-2-yl)pyrazin-2-yl]ethyl]-3-(2,2-difluoroethoxy)-5-(trifluoromethyl)benzamide], the percent control (mortality or growth inhibition) at 200 ppm with Plutella xylostella [2] was ≥ 80%. In addition, the percent control (mortality, anti-feedant effect or growth inhibition) at 200 ppm with Spodoptera littoralis and in the assay with Chilo suppressalis was ≥ 80% each time.

Regarding `CC(NC(=O)c1cc(OC(F)F)cc(C(F)(F)F)c1)c1nccnc1-c1ncc(C2CC2)cn1` (stereo not drawn) [Compound P33, N-[1-[3-(5-cyclopropylpyrimidin-2-yl)pyrazin-2-yl]ethyl]-3-(difluoromethoxy)-5-(trifluoromethyl)benzamide], the percent control (mortality or growth inhibition) at 200 ppm in the assay on Diabrotica balteata and in the assay on Plutella xylostella [2] was ≥ 80% each time. In addition, the percent control (mortality, anti-feedant effect or growth inhibition) at 200 ppm in the assay on Spodoptera littoralis and in the assay with Chilo suppressalis was ≥ 80% throughout.

As to `CC(NC(=O)c1cc(OC(F)F)cc(C(F)(F)F)c1)c1nccnc1-c1ccc(F)cn1` (stereo not drawn) [Compound P35, 3-(difluoromethoxy)-N-[1-[3-(5-fluoro-2-pyridyl)pyrazin-2-yl]ethyl]-5-(trifluoromethyl)benzamide], in the assay on Plutella xylostella [2], the percent control (mortality or growth inhibition) at 200 ppm is ≥ 80%.

As to `CC(NC(=O)c1cc(C(F)(F)F)cc(C(F)(F)F)c1)c1nccnc1-c1ccc(Cl)cn1` (stereo not drawn) [Compound P36, N-[1-[3-(5-chloro-2-pyridyl)pyrazin-2-yl]ethyl]-3,5-bis(trifluoromethyl)benzamide], the percent control (mortality, anti-feedant effect or growth inhibition) at 200 ppm in the assay with Chilo suppressalis was ≥ 80%.
